# In ChEMBL document CHEMBL3352275, “2-Aminothiazole derivatives as antimycobacterial agents: Synthesis, characterization, in vitro and in silico studies” (Eur J Med Chem, 2014):
# System: Mycobacterium tuberculosis
# Assay: Antimycobacterial activity against Mycobacterium tuberculosis H37Rv after 5 days by resazurin-based microdilution method
# Assay type: functional
# Conditions: 120 h
row,SMILES,MIC
1,Brc1ccc(-c2csc(Nc3ccccn3)n2)cc1,> 200 µM
2,Cc1cccnc1Nc1nc(-c2cccnc2)cs1,> 200 µM
3,O=[N+]([O-])c1cc(Cl)ccc1Nc1nc(-c2cccnc2)cs1,> 200 µM
4,Cc1sc(Nc2ccc(F)cc2)nc1-c1ccc(Br)cc1,100 µM
5,Cc1sc(Nc2ccccn2)nc1-c1ccc(Br)cc1,> 200 µM
6,Cc1cccc(Nc2nc(-c3ccc(Cl)c(Cl)c3)cs2)n1,> 200 µM
7,O=[N+]([O-])c1cc(Cl)ccc1Nc1nc(-c2ccncc2)cs1,> 200 µM
8,O=[N+]([O-])c1cc(Cl)ccc1Nc1nc(-c2ccc3ccccc3c2)cs1,> 200 µM
9,Oc1ccc(Nc2nc(-c3ccc(Cl)cc3)cs2)cc1,200 µM
10,Cc1cccnc1Nc1nc(-c2ccc(Br)cc2)c(Br)s1,> 200 µM
11,Cc1cccc(Nc2nc(-c3ccc(Br)cc3)c(C)s2)n1,> 200 µM
12,Oc1ccc(Nc2nc(-c3ccncc3)cs2)cc1,> 200 µM
13,COc1ccc(-c2csc(Nc3ccc(Cl)cc3[N+](=O)[O-])n2)cc1,12.5 µM
14,Fc1ccc(Nc2nc(-c3ccc(Br)cc3)c(Br)s2)cc1,25 µM
15,Oc1ccc(Nc2nc(-c3cccnc3)cs2)cc1,> 200 µM
16,COc1ccc(-c2csc(Nc3cccc(C)n3)n2)cc1,> 200 µM

row,SMILES,MIC
1,Cc1cccc(Nc2nc(-c3ccncc3)cs2)n1,100 µM
2,c1ccc(Nc2nc(-c3cccnc3)cs2)nc1,> 200 µM
3,O=[N+]([O-])c1cc(Cl)ccc1Nc1nc(-c2ccccn2)cs1,> 200 µM
4,Fc1ccc(Nc2nc(-c3ccc(Cl)cc3)cs2)cc1,12.5 µM
5,Cc1cccc(Nc2nc(-c3cccc4ccccc34)cs2)n1,> 200 µM
6,Cc1cccnc1Nc1nc(-c2ccc(Br)cc2)c(C)s1,100 µM
7,COc1ccc(-c2csc(Nc3ccc(F)cc3)n2)cc1,12.5 µM
8,Cc1cccnc1Nc1nc(-c2ccc(Cl)c(Cl)c2)cs1,> 200 µM
9,Fc1ccc(Nc2nc(-c3ccc4ccccc4c3)cs2)cc1,100 µM
10,COc1ccc(-c2csc(Nc3ccc(O)cc3)n2)cc1,> 200 µM
11,Cc1cccnc1Nc1nc(-c2ccncc2)cs1,> 200 µM
12,Fc1ccc(Nc2nc(-c3ccc(Br)cc3)cs2)cc1,25 µM
13,Brc1ccc(-c2nc(Nc3ccccn3)sc2Br)cc1,> 200 µM
14,Fc1ccc(Nc2nc(-c3ccncc3)cs2)cc1,25 µM
15,Fc1ccc(Nc2nc(-c3cccnc3)cs2)cc1,> 200 µM

# Biological target: not listed separately
# Assay: Binding affinity to Mycobacterium tuberculosis beta-Ketoacyl-ACP Synthase
# Conditions: not given
row,SMILES,Ki
1,Brc1ccc(Nc2nc(-c3ccncc3)cs2)cc1,440 nM
2,Cc1cccc(Nc2nc(-c3ccncc3)cs2)n1,30200 nM
3,Fc1ccc(Nc2nc(-c3ccc(Br)cc3)cs2)cc1,1280 nM
